Data as given in US4288449A, “N-Arylsulfonylpyrroles, their preparation, and therapeutic agents containing these compounds” (BASF Aktiengesellschaft, priority 1978, dated 1981).

Legend:
[1] = Diuretic action after oral administration (excretion of electrolyte and of water); format: in vivo, dog (male beagles); details: for Excretion of electrolyte: Na^+ / Na^+/K^+ quotient / Excretion of water: H2 O / Excretion of electrolyte: K^+ / Excretion of electrolyte: Cl^- / times more active than Furosemid / Na^+ excretion between the 2nd and 6th hours after administration: dog, oral; for Excretion of electrolyte: Na^+: dose mg/kg: 9 0.464, 15 0.215, 114 0.1, 116 0.1, 120 0.215, Furosemid 1.0; for Na^+/K^+ quotient: control 1.0; for times more active than Furosemid: by doses giving Na^+ and H2 O excretion similar to Furosemid; for Na^+ excretion between the 2nd and 6th hours after administration / diuretic action: in words
Procedure: The diuretic action was determined on male beagles weighing from 10 to 15 kg.
The animals are kept without food for 18 hours before starting the experiment. 2 hours before administration of the test substance, they are given 20 ml/kg of water orally. The test substances are administered orally as a tragacanth suspension. Thereafter, 4 ml/kg of water are administered 6 times at intervals of 1 hour.
Urine samples are taken by catheterization at intervals of 2 hours, over a period of 6 hours. […]

in vivo = details: mouse, po
Procedure: To determine the acute toxicity, the substances are administered orally to groups of 10 female mice of the NMRI strain, weighing from 20 to 23 g. The mean lethal dose (LD 50) is determined after a period of observation of 72 hours.

[2] = 2 hours, doses as E1, control 9,3
[3] = 2 hours, doses as E1, control 67
[4] = 2 hours, doses as E1, control 81
[5] = 6 hours, doses as E6, control 27
[6] = 6 hours, doses as E6, control 184
[7] = 6 hours, doses as E6, control 238

SMILES | Excretion of electrolyte: Na^+ ([1]; 2 hours, control 66) | Na^+/K^+ quotient ([1]; 2 hours, doses as E1) | Excretion of water: H2 O [1, 2] [mL/kg] | Excretion of electrolyte: K^+ [1, 3] [μval/kg] | Excretion of electrolyte: Cl^- [1, 4] | Excretion of electrolyte: Na^+ ([1]; 6 hours, control 212) | Excretion of water: H2 O [1, 5] [mL/kg] | Excretion of electrolyte: K^+ [1, 6] [μval/kg] | Excretion of electrolyte: Cl^- [1, 7] | times more active than Furosemid [1] [times] | LD50 at 72 h (in vivo) [mg/kg] | selectivity ratio (in vivo) | Na^+ excretion between the 2nd and 6th hours after administration [1] | diuretic action [1]
CCc1ccc(CC)n1S(=O)(=O)c1cc(C(=O)O)cc(NCc2ccsc2)c1Oc1ccccc1 [Example 114] | 1410 µval/kg | 4.8 | 26 | 295 | 1,780 μval/kg | 1,640 μval/kg | 42 | 442 | 2,080 μval/kg | 10 | > 2150 | > 21500 |  | 
CCc1ccc(C)n1S(=O)(=O)c1cc(C(=O)O)cc(NCc2ccsc2)c1Oc1ccccc1 [Example 116] | 1,150 μval/kg | 4.2 | 22 | 271 | 1,510 μval/kg | 1,560 μval/kg | 40 | 473 | 2,100 μval/kg | 10 | > 2150 | > 21500 |  | 
O=C(O)c1cc(NCc2ccccc2)c(Oc2ccccc2)c(S(=O)(=O)n2cccc2)c1 [Example 9] | 1,520 μval/kg | 5.1 | 27 | 298 | 1,940 μval/kg | 2930 µval/kg | 56 | 810 | 4,200 μval/kg | 2.2 | 957 | 2060 | a distinct further increase in excretion | not only better action, but also longer-lasting action, than Furosemid
O=C(O)c1cc(NCc2ccsc2)c(Oc2ccccc2)c(S(=O)(=O)n2cccc2)c1 [Example 15] | 1,240 μval/kg | 3.7 | 23 | 333 | 1,520 μval/kg | 1,940 μval/kg | 45 | 642 | 2,440 μval/kg |  | 1470 | 6840 | a distinct further increase in excretion | not only better action, but also longer-lasting action, than Furosemid
NS(=O)(=O)c1cc(C(=O)O)c(NCc2ccco2)cc1Cl [Furosemid, 4-chloro-N-(2-furylmethyl)-5-sulfamylanthranilic acid, reference compound] |  | 3.1 |  |  |  |  |  |  |  |  |  |  |  | 
Cc1ccc(C)n1S(=O)(=O)c1cc(C(=O)O)cc(NCc2ccsc2)c1Nc1ccccc1 [Example 120] | 1260 µval/kg | 5.6 | 19 | 227 | 1,600 μval/kg | 2,050 μval/kg | 41 | 527 | 2,760 μval/kg |  | > 2150 | > 10000 |  | 
